Results taken from the supplement of paper PMC11061612.

Key:
Test in all cases: combination Emax (second highest fraction inhibited in the dose matrix, 72 h); higher = more inhibition; extreme values may be limits of the assay
[1] = system: T-T (Esophageal Squamous Cell Carcinoma)
Summary of the method: (§1)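 After 24 hours at 37°C and 5% CO2 in 1536-well plates, cells in DMEM/F12 or RPMI plus 10% FBS received two-drug dose matrices for 72 hours. Viability came from CellTiter-Glo 2.0 luminescence and was scaled as inhibition, anchored at 0 by vehicle wells and at 1 by blank wells. Combination Emax is taken as the second-highest inhibition in the matrix, and Bliss excess as the observed combination effect less EA + EB − EA·EB, with EA and EB the single-agent effects.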

[2] = system: NCI-H2731 (Mesothelioma)
Summary of the method: as §1

[3] = system: 8505C (Thyroid Gland Carcinoma)
Summary of the method: as §1

[4] = system: NCI-H526 (Small Cell Lung Carcinoma)
Summary of the method: as §1

[5] = system: G-361 (Melanoma)
Summary of the method: as §1

[6] = system: IM-95 (Gastric Carcinoma)
Summary of the method: as §1

[7] = system: M059J (Glioblastoma)
Summary of the method: as §1

[8] = system: CHSA8926 (Chondrosarcoma)
Summary of the method: as §1

[9] = system: VMRC-RCZ (Kidney Carcinoma)
Summary of the method: as §1

[10] = system: SJSA-1 (Osteosarcoma)
Summary of the method: as §1

[11] = system: PC-3 (Prostate Carcinoma)
Summary of the method: as §1

[12] = system: MN-60 (B-Lymphoblastic Leukemia)
Summary of the method: as §1

[13] = system: HCC1187 (Breast Carcinoma)
Summary of the method: as §1

[14] = system: COR-L279 (Small Cell Lung Carcinoma)
Summary of the method: as §1

[15] = system: NCI-H520 (Squamous Cell Lung Carcinoma)
Summary of the method: as §1

[16] = system: MOLM-13 (Acute Myeloid Leukemia)
Summary of the method: as §1

[17] = system: ST486 (Burkitt's Lymphoma)
Summary of the method: as §1

[18] = system: DMS-114 (Small Cell Lung Carcinoma)
Summary of the method: as §1

[19] = system: SK-GT-2 (Gastric Carcinoma)
Summary of the method: as §1

[20] = system: NCI-H929 (Plasma Cell Myeloma)
Summary of the method: as §1

Compound | combination Emax [1] | combination Emax [2] | combination Emax [3] | combination Emax [4] | combination Emax [5] | combination Emax [6] | combination Emax [7] | combination Emax [8] | combination Emax [9] | combination Emax [10] | combination Emax [11] | combination Emax [12] | combination Emax [13] | combination Emax [14] | combination Emax [15] | combination Emax [16] | combination Emax [17] | combination Emax [18] | combination Emax [19] | combination Emax [20]
CC1(C)CCC(CN2CCN(c3ccc(C(=O)NS(=O)(=O)c4ccc(NCC5CCOCC5)c([N+](=O)[O-])c4)c(Oc4cnc5[nH]ccc5c4)c3)CC2)=C(c2ccc(Cl)cc2)C1 [Venetoclax] + Cn1cnc2c(F)c(Nc3ccc(Br)cc3Cl)c(C(=O)NOCCO)cc21 [Selumetinib] (first compound max 1 µM, 7x7, partner max 3 µM) | 0.221 | 0.0907 | 0.36 | 0.625 | 0.702 | 0.179 | 0.203 | 0.148 | 0.122 | 0.325 | 0.152 | 0.347 | 0.129 | 0.213 | 0.113 | 1 | 0.754 | 0.0989 | 0.0541 | 0.386
CC1(C)CCC(CN2CCN(c3ccc(C(=O)NS(=O)(=O)c4ccc(NCC5CCOCC5)c([N+](=O)[O-])c4)c(Oc4cnc5[nH]ccc5c4)c3)CC2)=C(c2ccc(Cl)cc2)C1 [Venetoclax] + CN(C)CCCOc1ccc(-c2ccc3ncc4c(c3c2)n(C2CCOCC2)c(=O)n4C)cn1 [AZD0156] (first compound max 1 µM, 7x7, partner max 1 µM) | 0.204 | 0.145 | 0.2 | 0.856 | 0.115 | 0.19 | 0.169 | 0.212 | 0.14 | 0.177 | 0.21 | 0.285 | 0.173 | 0.522 | 0.354 | 0.898 | 0.77 | 0.245 | 0.155 | 0.691
C=CCn1c(=O)c2cnc(Nc3ccc(N4CCN(C)CC4)cc3)nc2n1-c1cccc(C(C)(C)O)n1 [AZD1775] + O=C(c1cc(Cc2n[nH]c(=O)c3ccccc23)ccc1F)N1CCN(C(=O)C2CC2)CC1 [Olaparib] (first compound max 1 µM, partner max 10 µM) | 0.455 | 0.349 | 0.319 | 0.758 | 0.564 | 0.447 | 0.618 | 0.455 | 0.339 | 0.253 | 0.207 | 0.366 | 0.423 | 0.858 | 0.833 | 0.991 | 0.979 | 0.363 | 0.82 | 0.473
Cc1nc(Nc2ncc(C(=O)Nc3c(C)cccc3Cl)s2)cc(N2CCN(CCO)CC2)n1 [Dasatinib] + CC(=O)Nc1cccc(-n2c(=O)n(C3CC3)c(=O)c3c(Nc4ccc(I)cc4F)n(C)c(=O)c(C)c32)c1 [Trametinib] (first compound max 2 µM, 7x7, partner max 1 µM) | 0.5 | 0.361 | 0.628 | 0.0355 | 0.753 | 0.288 | 0.492 | 0.823 | 0.454 | 0.522 | 0.243 | 0.27 | 0.137 | 0.254 | 0.233 | 0.955 | 0.611 | 0.326 | 0.545 | 0.992
CC1(C)CCC(CN2CCN(c3ccc(C(=O)NS(=O)(=O)c4ccc(NCC5CCOCC5)c([N+](=O)[O-])c4)c(Oc4cnc5[nH]ccc5c4)c3)CC2)=C(c2ccc(Cl)cc2)C1 [Venetoclax] + COc1cc(Nc2ncc3c(n2)-c2ccc(Cl)cc2C(c2c(F)cccc2OC)=NC3)ccc1C(=O)O [Alisertib] (first compound max 1 µM, 7x7, partner max 10 µM) | 0.487 | 0.364 | 0.275 | 0.852 | 0.415 | 0.412 | 0.636 | 0.531 | 0.21 | 0.33 | 0.321 | 0.291 | 0.744 | 0.82 | 0.54 | 1 | 0.909 | 0.555 | 0.241 | 0.662
COc1cccc(OCCCN)c1-c1cc(Nc2cnc(C#N)cn2)n[nH]1 [Prexasertib] + O=C(c1cc(Cc2n[nH]c(=O)c3ccccc23)ccc1F)N1CCN(C(=O)C2CC2)CC1 [Olaparib] (first compound max 1 µM, 7x7, partner max 10 µM) | 0.795 | 0.387 | 0.722 | 0.912 | 0.668 | 0.253 | 0.779 | 0.398 | 0.408 | 0.639 | 0.43 | 0.424 | 0.614 | 0.923 | 0.825 | 1 | 0.973 | 0.412 | 0.834 | 0.727
C[C@@H]1COCCN1c1cc(C2([S@](C)(=N)=O)CC2)nc(-c2ccnc3[nH]ccc23)n1 [AZD6738] + O=C(c1cc(Cc2n[nH]c(=O)c3ccccc23)ccc1F)N1CCN(C(=O)C2CC2)CC1 [Olaparib] (first compound max 10 µM, 7x7, partner max 10 µM) | 0.448 | 0.304 | 0.356 | 0.752 | 0.456 | 0.459 | 0.684 | 0.36 | 0.319 | 0.377 | 0.514 | 0.528 | 0.532 | 0.927 | 0.752 | 1 | 0.909 | 0.528 | 0.355 | 0.668
NC1(C(=O)N[C@@H](CCO)c2ccc(Cl)cc2)CCN(c2ncnc3[nH]ccc23)CC1 [Capivasertib] + C[C@@H]1COCCN1C2=NC(=NC(=C2)C3(CC3)[S@](=N)(=O)C)C4=C5C=CNC5=NC=C4 [AZD6738] (first compound max 10 µM, 7x7, partner max 10 µM) | 0.389 | 0.514 | 0.475 | 0.779 | 0.614 | 0.456 | 0.622 | 0.54 | 0.549 | 0.713 | 0.593 | 0.715 | 0.51 | 0.853 | 0.711 | 0.982 | 0.881 | 0.623 | 0.601 | 1
COc1cccc(OCCCN)c1-c1cc(Nc2cnc(C#N)cn2)n[nH]1 [Prexasertib] + C[C@@H]1COCCN1C2=NC(=NC(=C2)C3(CC3)[S@](=N)(=O)C)C4=C5C=CNC5=NC=C4 [AZD6738] (first compound max 1 µM, 7x7, partner max 10 µM) | 0.742 | 0.395 | 0.551 | 0.92 | 0.655 | 0.267 | 0.686 | 0.361 | 0.398 | 0.575 | 0.431 | 0.562 | 0.614 | 0.835 | 0.775 | 1 | 0.98 | 0.514 | 0.81 | 0.741
COc1cccc(OCCCN)c1-c1cc(Nc2cnc(C#N)cn2)n[nH]1 [Prexasertib] + CCc1c2c(nc3ccc(O)cc13)-c1cc3c(c(=O)n1C2)COC(=O)[C@]3(O)CC [SN-38] (first compound max 1 µM, 7x7, partner max 0.3 µM) | 0.971 | 0.663 | 0.854 | 1 | 0.727 | 0.602 | 0.98 | 0.537 | 0.625 | 0.743 | 0.703 | 0.825 | 0.866 | 1 | 0.867 | 1 | 1 | 0.716 | 0.975 | 0.865
COc1nnc2ccc(N3CCC(c4ccc(OCCN5CCN(C)C(=O)[C@H]5C)cc4)CC3)nn12 [AZD5153] + C=CCn1c(=O)c2cnc(Nc3ccc(N4CCN(C)CC4)cc3)nc2n1-c1cccc(C(C)(C)O)n1 [AZD1775] (first compound max 1 µM, partner max 1 µM) | 0.615 | 0.535 | 0.574 | 0.947 | 0.734 | 0.5 | 0.668 | 0.735 | 0.489 | 0.589 | 0.447 | 0.748 | 0.792 | 0.899 | 0.811 | 1 | 0.985 | 0.629 | 0.755 | 0.908
C=CCn1c(=O)c2cnc(Nc3ccc(N4CCN(C)CC4)cc3)nc2n1-c1cccc(C(C)(C)O)n1 [AZD1775] + C1CN(CCC1(C(=O)N[C@@H](CCO)C2=CC=C(C=C2)Cl)N)C3=NC=NC4=C3C=CN4 [Capivasertib] (first compound max 3 µM, partner max 3 µM) | 0.618 | 0.416 | 0.741 | 0.907 | 0.724 | 0.655 | 0.826 | 0.578 | 0.359 | 0.634 | 0.394 | 0.555 | 0.936 | 0.818 | 0.795 | 1 | 0.971 | 0.649 | 0.83 | 0.981
Cc1cc2ncnn2cc1Nc1ncc2c(n1)n(C1CCOCC1)c(=O)n2C [AZD7648] + C[C@@H]1COCCN1C2=NC(=NC(=C2)C3(CC3)[S@](=N)(=O)C)C4=C5C=CNC5=NC=C4 [AZD6738] (first compound max 10 µM, 7x7, partner max 10 µM) | 0.531 | 0.381 | 0.361 | 0.637 | 0.45 | 0.317 | 0.514 | 0.428 | 0.388 | 0.435 | 0.402 | 0.427 | 0.278 | 0.677 | 0.771 | 0.998 | 0.893 | 0.54 | 0.216 | 0.846
